Laboratory results from patent publication US20240382450A1, “COMPOSITION OF B-CAR[…] A STATIN, AND METHODS OF USING SAME” (OrthoTreat Ltd., priority 2021, published 2024).

Legend:
femoral bone fracture = assay: Bone quality examined after 35 treatment days (decalcified and non-decalcified); format: in vivo, Sprague Dawley rats; conditions: following 35 treatment days, none-decalcification
Procedure: Pseudo-fractures were created by making a trough on one surface of the femoral shaft through one side of the cortex. The compositions were administered locally by daily injection. Animals: Naive male Sprague Dawley rats (SD rats), 12 weeks old, around 350 g. Right leg was treated while the left leg serves as a control (vehicle).
Bone quality was examined after 35 treatment days. For the G1−B+L group, cell proliferation was improved by >44% compared to untreated bone.
Bone endosteal & periosteal proliferation, defect fill and bone quality were evaluated following 35 treatment days of femoral bone fracture with β-caryophyllene (none-decalcification).

[1] = system: Human primary osteoblast cells; conditions: osteoblasts, 24 and 96 hours, tested 0 to 6,561 μM
Procedure: (§1) In vitro cytotoxicity & proliferation assay (basal) are being performed on human osteoblasts and stem cells monolayers.
Human primary osteoblast cells are maintained in a 37° C. humidified incubator with 5% CO2 atmosphere. Cells are cultured in Primary Osteoblast Media containing Primary Osteoblast Culture Supplement and 1% of the penicillin/streptomycin stock solution.

MUTZ-3 cells = conditions: MUTZ-3, 24 and 96 hours, tested 0 to 6,561 μM
Procedure: as §1
As a human primary osteoclast cell is unable to proliferate, MUTZ-3, a human cell line model for osteoclast differentiation is also being used. MUTZ-3 cells are maintained in a 37° C. humidified incubator with 5% CO2 atmosphere. Cells are cultured in Dulbecco's modified Eagle's Medium (DMEM) supplemented with 10% foetal calf serum and 1% of the penicillin streptomycin stock solution.

## (−)-β-caryophyllene
Femoral bone fracture
  bone quality: Significant improvement
  defect fill: Significant improvement
  endosteal and periosteal proliferation: Significant improvement
[1]
  concentration without significant cytotoxic effect: up to 27 μM
MUTZ-3 cells
  concentration without significant cytotoxic effect: up to 27 μM
